Assay results reported in patent publication US11022556B2, “Tetrazolium compound for detecting microorganisms, reagent for detecting microorganisms and method for detecting microorganisms” (JNC CORPORATION, priority 2010, dated 2021).

Experiments:
[1] = test system: general viable cells; assay: comparative test for detecting microorganisms on sheet media for detecting general viable cells; assay type: cell-based; conditions: food samples (meat, precut vegetables, delicatessens); sheet medium with 0.03 g/m^3 reagent; 35° C.; 24 hours incubation vs 48 hours for 2,3,5-triphenyltetrazolium chloride
Method: Next, the results obtained by a comparative test for detecting microorganisms using the chromogenic reagent of Example 1 and the chromogenic reagent of Comparative Example are described below. The comparative test was performed as follows. First, sheet media for detecting general viable cells containing as the chromogenic reagent 0.03 g/m^3 each of tetrazolium compound A of Example 1 and 2,3,5-triphenyltetrazolium chloride of Comparative Example, respectively, were prepared. The sheet media for general viable cells were the same except that the chromogenic reagents were different.
Then, 10 g of either one of meat, precut vegetables, delicatessens, etc. was put into a sterilized bag and 100 ml of sterile saline was added thereto. The mixture was homogenized with a stomacher. […]
The sheet medium of Example 1 for detecting general viable cells containing the chromogenic reagent was incubated for 24 hours and the sheet medium for detecting general viable cells containing the chromogenic reagent for comparison was incubated for 48 hours, respectively, both at 35° C. The viable cell counts were compared between the count of viable cells visually detected by the chromogenic reagent of Example 1 and the count of viable cells detected by the chromogenic reagent of Comparative Example. […]

[2] = absorption wavelength and colour of the formazan dye formed from the tetrazolium compound; assay type: physicochemical; conditions: formazan dye produced by reduction of the tetrazolium compound

COc1ccccc1-n1nc(-c2ccccc2)n[n+]1-c1ccc([N+](=O)[O-])cc1.[Cl-] [tetrazolium compound A, 2-(2-Methoxyphenyl)-3-(4-nitrophenyl)-5-phenyltetrazolium chloride]
number of colonies (viable cell count) visually detected, compared with the chromogenic reagent of Comparative Example [1]: almost the same number or more of colonies were detected | colour developed by the formazan dye [2]: blue to bluish purple | peak of absorption wavelength of the formazan dye formed [2]: approximately 410 nm

COc1cc([N+](=O)[O-])ccc1-n1nc(-c2ccccc2)n[n+]1-c1ccc([N+](=O)[O-])cc1.[Cl-] [tetrazolium compound B, 2-(2-Methoxy-4-nitrophenyl)-3-(4-nitrophenyl)-5-phenyltetrazolium chloride]
number of colonies (viable cell count) visually detected, compared with the chromogenic reagent of Comparative Example [1]: the colonies were detected in the same number as in or more than | colour developed by the formazan dye [2]: blue to bluish purple | peak of absorption wavelength of the formazan dye formed [2]: approximately 410 nm
